Each structure is given as a SMILES string.

One assay has as its system H1299 cells. In words: Cell viability assay (MTT, 72 h), H1299. The class given is cell-based. To be noted: Homo sapiens, NCI-H1299, proliferation, mean ± s.d. (n = 3). The procedure:
(§1) The H1299 cell line was obtained from Guangzhou Jenniobio Biotechnology Co., Ltd. (Guangzhou, China), PC9 and A549 cells were gifted from Deng Jiong’s lab in the School of Medicine, Shanghai Jiao Tong University, Shanghai, China). H1299, PC9 cells were cultured in RPMI-1640 medium and A549 cells were cultured in F-12K medium containing 10% fetal bovine serum (FBS), 100 units/mL of Penicillin and 100 μg/mL Streptomycin. In cell viability assays, 2000 H1299 cells, A549 cells or 1000 PC9 cells per well were seeded in 96-well plate. After attachment for 24 h, the cells were treated with indicated inhibitor for 72 h. After incubation with 0.5 mg/mL methylthiazolyldiphenyl-tetrazolium bromide (MTT) for 4 h, cell viability was measured as the OD at 570 nm.

The next assay has as its target T1, PGAM1 (Homo sapiens, UniProt P18669).
T1 construct: His6 (C); made in house
In words: PGAM1 enzymatic assay (enolase-pyruvate kinase-LDH coupled, OD 340 nm). The assay is classed as biochemical. To be noted: for IC50: optimized enzymatic assay, mean ± s.d. (n = 3); for inhibition at 10 µM: 10 μM compound, mean ± s.d. (n = 2). The method, then: (§2) Firstly, 1 μL inhibitor in dimethyl sulfoxide (DMSO) incubated with 49 μL 4.6 nM recombinant PGAM1, then 50 μL enzyme mix containing 3 units/mL enolase (Sigma-Aldrich, Saint Louis, MO, USA), 3 units/mL recombinant pyruvate kinase M2 (Sigma-Aldrich), 0.6 units/mL recombinant lactatdehydrogenase (LDH, Sigma-Aldrich), 100 mM Tris-HCl, 100 mM KCl, 5 mM MgCl2, 1 mM adenosine diphosphate (ADP), 0.2 mM the reduced form of nicotinamide adenine dinucleotide (NADH) and 4 mM 3PG was added. PGAM1 activity was measured as the decrease in OD at 340 nm. In addition, we performed a counter screening in which 4mM 2PG was added to 50 μL reaction mix containing the indicated inhibitor, 3 units/mL enolase (Sigma-Aldrich), 3 units/mL recombinant pyruvate kinase M2 (Sigma-Aldrich), 0.6 units/mL recombinant LDH (Sigma-Aldrich), 100 mM Tris-HCl, 100 mM KCl, 5 mM MgCl2, 1 mM ADP and 0.2 mM NADH. The other three enzyme activity was measured as the decrease in OD at 340 nm.

Assay [1] relates to enolase-pyruvate kinase-LDH. In words: Counter screening: control linked enzyme assay with 2PG. The assay is classed as biochemical. The conditions noted are these: 0.5 μM compound, pyruvate kinase M2, LDH without PGAM1, mean ± s.d. (n = 2). The procedure: as §2
Another assay has as its system A549 cells. As to the kind of experiment: Cell viability assay (MTT, 72 h), A549. The assay is classed as cell-based. To be noted: Homo sapiens, proliferation, mean ± s.d. (n = 3). The procedure:
as §1

The next assay has as its system PC9 cells. As to the kind of experiment: Cell viability assay (MTT, 72 h), PC9. The class given is cell-based. The conditions noted are these: Homo sapiens, PC-9, proliferation, mean ± s.d. (n = 3). The method, then: as §1

T1 sequence (P18669 whole entry): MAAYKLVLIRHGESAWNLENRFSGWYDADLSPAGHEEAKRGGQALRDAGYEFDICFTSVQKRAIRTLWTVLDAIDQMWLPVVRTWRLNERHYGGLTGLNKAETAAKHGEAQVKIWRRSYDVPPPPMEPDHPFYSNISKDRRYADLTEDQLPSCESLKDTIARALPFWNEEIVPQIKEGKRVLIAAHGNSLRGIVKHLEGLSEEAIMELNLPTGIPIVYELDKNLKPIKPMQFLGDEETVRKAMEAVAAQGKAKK

As usually defined, the IC50 is the midpoint of a concentration-inhibition curve. Consider `O=C1c2ccccc2C(=O)c2c1cc(NS(=O)(=O)c1cccc(Br)c1)c(O)c2O` [Compound 9o, 3-Bromo-N-(3,4-dihydroxy-9,10-dioxo-9,10-dihydroanthracen-2-yl) benzenesulfonamide], for which the IC50 in the assay on H1299 cells turned out to be 24.5 ± 0.2 µM; at PGAM1, 0.35 ± 0.005 µM. For the same compound, in assay [1], the “Inhibition in the Control Linked Enzyme Assay (0.5 μM)” value (“Inhibition … (0.5 μM)” below) was found to be 7.7 ± 0.2%.

Turning to `N#Cc1ccc(S(=O)(=O)Nc2cc3c(c(O)c2O)C(=O)c2ccccc2C3=O)cc1` [Compound 9e, 4-Cyano-N-(3,4-dihydroxy-9,10-dioxo-9,10-dihydroanthracen-2-yl) benzenesulfonamide], the values for the IC50 in the assay on H1299 cells and against PGAM1 were 26.3 ± 4.5 µM and 0.61 ± 0.12 µM, respectively. Further, the “Inhibition … (0.5 μM)” value in assay [1] turned out to be 6.7 ± 0.2%.

With `O=C1c2ccccc2C(=O)c2c1cc(NS(=O)(=O)c1ccc(Br)cc1)c(O)c2O` [Compound 9m, 4-Bromo-N-(3,4-dihydroxy-9,10-dioxo-9,10-dihydroanthracen-2-yl) benzenesulfonamide], the IC50 in the assay with H1299 cells turned out to be 28.1 ± 1.9 µM; against PGAM1, 0.26 ± 0.02 µM. Besides, in assay [1], the “Inhibition … (0.5 μM)” value is recorded as −0.1 ± 2.5%.

Turning to `NNC(=O)COc1c(NS(=O)(=O)c2ccc(Cl)cc2)cc2c(c1O)C(=O)c1ccccc1C2=O` [Compound 14f, 4-chloro-N-(3-(2-hydrazinyl-2-oxoethoxy)-4-hydroxy-9,10-dioxo-9,10-dihydroanthracen-2-yl) benzenesulfonamide], the results for the IC50 in the assay on H1299 cells and on PGAM1 were over 100 µM and 2 ± 0.2 µM, respectively.

In the case of `CS(=O)(=O)Oc1c(NS(=O)(=O)c2ccc(Cl)cc2)cc2c(c1O)C(=O)c1ccccc1C2=O` [Compound 14g, 3-((4-chlorophenyl)sulfonamido)-1-hydroxy-9,10-dioxo-9,10-dihydroanthracen-2-yl methanesulfonate], the values for the IC50 in the assay on H1299 cells and against PGAM1 were 28.5 ± 0.6 µM and over 10 µM, respectively.

By inhibition is commonly meant the change of the read-out against control, counted positive when it falls. `CCOC(=O)COc1cc(NS(=O)(=O)c2ccc(Cl)cc2)c2c(c1O)C(=O)c1ccccc1C2=O` [Compound 12, ethyl 2-((4-((4-chlorophenyl)sulfonamido)-1-hydroxy-9,10-dioxo-9,10-dihydroanthracen-2-yl)oxy) acetate]: the inhibition at 10 µM on PGAM1 came to 10%.

With `O=C1c2ccccc2C(=O)c2c1cc(NS(=O)(=O)c1ccc(C(F)(F)F)cc1)c(O)c2O` [Compound 9a, N-(3,4-Dihydroxy-9,10-dioxo-9,10-dihydroanthracen-2-yl)-4-(trifluoromethyl) benzenesulfonamide], the results for the IC50 in the assay on H1299 cells and on PGAM1 were 20.7 ± 0.6 µM and 0.54 ± 0.04 µM, respectively. In assay [1], the “Inhibition … (0.5 μM)” value is on record as 8.0 ± 5.0%.

For the compound `O=C(O)COc1ccc2c(c1O)C(=O)c1ccccc1C2=O` [Compound 6d], on PGAM1, the inhibition at 10 µM came out at 5.5 ± 0.03%.

With `O=C1c2ccccc2C(=O)c2c1cc(NS(=O)(=O)c1ccc([N+](=O)[O-])cc1)c(O)c2O` [Compound 9b, N-(3,4-Dihydroxy-9,10-dioxo-9,10-dihydroanthracen-2-yl)-4-nitrobenzenesulfonamide], the results for the IC50 in the assay on H1299 cells and against PGAM1 were 25.8 ± 2.2 µM and 0.47 ± 0.08 µM, respectively. Further, the “Inhibition … (0.5 μM)” value in assay [1] was −2.9 ± 0.3%.

Turning to `CN(C)C(=O)COc1ccc2c(c1O)C(=O)c1ccccc1C2=O` [Compound 6e, 2-((1-hydroxy-9,10-dioxo-9,10-dihydroanthracen-2-yl)oxy)-N,N-dimethylacetamide], the inhibition at 10 µM against PGAM1 amounted to 20.2 ± 2.2%.

For the compound `O=C1c2ccccc2C(=O)c2c1cc(NS(=O)(=O)c1ccccc1I)c(O)c2O` [Compound 9q, 2-Iodo-N-(3,4-dihydroxy-9,10-dioxo-9,10-dihydroanthracen-2-yl) benzenesulfonamide], the values for the IC50 in the assay on H1299 cells and on PGAM1 were 26.4 ± 3.8 µM and 0.26 ± 0.03 µM, respectively. Further, the “Inhibition … (0.5 μM)” value in assay [1] was −2.3 ± 2.4%.

Regarding `CCOC(=O)COc1ccc2c(c1OCC(=O)OCC)C(=O)c1ccccc1C2=O` [Compound 6a, diethyl 2,2′-((9,10-dioxo-9,10-dihydroanthracene-1,2-diyl)bis(oxy)) diacetate], the inhibition at 10 µM against PGAM1 is -0.6 ± 1%.

Consider `O=C(O)COc1cc(NS(=O)(=O)c2ccc(Cl)cc2)c2c(c1O)C(=O)c1ccccc1C2=O` [Compound 13, 2-((4-((4-chlorophenyl)sulfonamido)-1-hydroxy-9,10-dioxo-9,10-dihydroanthracen-2-yl)oxy) acetic acid], for which, on PGAM1, the inhibition at 10 µM was determined as 34%.

Take `O=C1c2ccccc2C(=O)c2c1cc(NS(=O)(=O)c1cccc(F)c1F)c(O)c2O` [Compound 9h, N-(3,4-Dihydroxy-9,10-dioxo-9,10-dihydroanthracen-2-yl)-2,3-difluorobenzenesulfonamide]: the results for the IC50 in the assay on H1299 cells and against PGAM1 were 45.7 ± 2.7 µM and 0.89 ± 0.13 µM, respectively. The “Inhibition … (0.5 μM)” value in assay [1] was found to be 0.06 ± 0.4%.

`O=C(O)COc1c(NS(=O)(=O)c2ccc(Cl)cc2)cc2c(c1O)C(=O)c1ccccc1C2=O` [Compound 14b, 2-((3-((4-chlorophenyl)sulfonamido)-1-hydroxy-9,10-dioxo-9,10-dihydroanthracen-2-yl)oxy) acetic acid]: on PGAM1, the IC50 was over 10 µM.

Take `CCOC(=O)COc1ccc2c(c1O)C(=O)c1ccccc1C2=O` [Compound 6c]: the inhibition at 10 µM on PGAM1 came out at 0%.

Consider `O=C1c2ccccc2C(=O)c2c1cc(NS(=O)(=O)c1c(Cl)cccc1Cl)c(O)c2O` [Compound 9k, 2,6-Dichloro-N-(3,4-dihydroxy-9,10-dioxo-9,10-dihydroanthracen-2-yl) benzenesulfonamide], for which the figures for the IC50 in the assay on H1299 cells and at PGAM1 were 34.6 ± 2.4 µM and 0.89 ± 0.33 µM, respectively. Moreover, the “Inhibition … (0.5 μM)” value in assay [1] is recorded as 0.5 ± 3.2%.

On to `O=C1c2ccccc2C(=O)c2c1cc(NS(=O)(=O)c1ccccc1Br)c(O)c2O` [Compound 9n, 2-Bromo-N-(3,4-dihydroxy-9,10-dioxo-9,10-dihydroanthracen-2-yl) benzenesulfonamide], for which the results for the IC50 in the assay with H1299 cells and against PGAM1 were 50 ± 0.6 µM and 0.2 ± 0.04 µM, respectively. In addition, the “Inhibition … (0.5 μM)” value in assay [1] is given as 6.1 ± 0.8%.

As to `O=C1c2ccccc2C(=O)c2c1cc1c(c2O)OCCN1S(=O)(=O)c1ccc(Cl)cc1` [Compound 14e, 4-((4-chlorophenyl)sulfonyl)-12-hydroxy-3,4-dihydro-2H-anthra[2,3-b][1,4]-oxazine-6,11-dione], the IC50 on PGAM1 is over 10 µM.

In the case of `COc1c(N(C)S(=O)(=O)c2ccc(Cl)cc2)cc2c(c1O)C(=O)c1ccccc1C2=O` [Compound 14d, 4-chloro-N-(4-hydroxy-3-methoxy-9,10-dioxo-9,10-dihydroanthracen-2-yl)-N-methyl-benzenesulfonamide], the IC50 in the assay with A549 cells worked out at 9.9 ± 0.2 µM; in the assay on PC9 cells, 49.1 ± 1.9 µM; in the assay with H1299 cells it was 10.3 ± 0.8 µM; on PGAM1, 7.01 ± 0.92 µM.

On to `O=C1c2ccccc2C(=O)c2c1cc(NS(=O)(=O)c1ccc(F)cc1)c(O)c2O` [Compound 9f, N-(3,4-Dihydroxy-9,10-dioxo-9,10-dihydroanthracen-2-yl)-4-fluorobenzenesulfonamide], for which the IC50 stood at 24.2 ± 2.6 µM in the assay with H1299 cells and 0.54 ± 0.07 µM against PGAM1. The “Inhibition … (0.5 μM)” value in assay [1] is listed as 5.7 ± 0.7%.

For the compound `O=C1c2ccccc2C(=O)c2c1cc(NS(=O)(=O)c1ccc(Cl)cc1Cl)c(O)c2O` [Compound 9j, 2,4-Dichloro-N-(3,4-dihydroxy-9,10-dioxo-9,10-dihydroanthracen-2-yl) benzenesulfonamide], the IC50 with H1299 cells worked out at 23.7 ± 1.1 µM; against PGAM1, 0.28 ± 0.07 µM. The “Inhibition … (0.5 μM)” value in assay [1] is on record as −2.0 ± 5.1%.

In the case of `O=C1c2ccccc2C(=O)c2c1cc(NS(=O)(=O)c1ccccc1F)c(O)c2O` [Compound 9g, N-(3,4-Dihydroxy-9,10-dioxo-9,10-dihydroanthracen-2-yl)-2-fluorobenzenesulfonamide], the IC50 with H1299 cells amounted to 31.3 ± 1.9 µM; on PGAM1 it was 0.79 ± 0.04 µM. Besides, the “Inhibition … (0.5 μM)” value in assay [1] amounted to 10.2 ± 3.0%.

`COc1c(NS(=O)(=O)c2ccc(Cl)cc2)cc2c(c1O)C(=O)c1ccccc1C2=O` [Compound 14c, 4-chloro-N-(4-hydroxy-3-methoxy-9,10-dioxo-9,10-dihydroanthracen-2-yl) benzene-sulfonamide]: the IC50 with H1299 cells came to 26.9 ± 2.1 µM; against PGAM1, 2.92 ± 0.11 µM.

Consider `O=C(O)COc1ccc2c(c1OCC(=O)O)C(=O)c1ccccc1C2=O` [Compound 6b, 2,2′-((9,10-dioxo-9,10-dihydroanthracene-1,2-diyl)bis(oxy)) diacetic acid], for which the inhibition at 10 µM against PGAM1 is 14.3 ± 5.9%.

As to `CCOC(=O)COc1c(NS(=O)(=O)c2ccc(Cl)cc2)cc2c(c1O)C(=O)c1ccccc1C2=O` [Compound 14a, ethyl 2-((3-((4-chlorophenyl)sulfonamido)-1-hydroxy-9,10-dioxo-9,10-dihydroanthracen-2-yl)oxy) acetate], the IC50 against PGAM1 was over 10 µM.
